Our source for the IC50 values is patent US20230192691A1, “HETEROCYCLIC COMPOUNDS AS BTK INHIBITORS” (Beijing InnoCare Pharma Tech Co., Ltd., priority 2020, published 2023).

In general, IC50 refers to the concentration at which inhibition is half-maximal.

The structures appear in SMILES notation.

For experiment [1], the target named is T1, human-derived recombinant BTK protein (Homo sapiens, UniProt Q06187).
T1 construct: purchased Carna Biosciences 08-180
Kind of experiment: BTK activity inhibition assay (HTRF in vitro kinase assay). Type of experiment: biochemical. To be noted: 40 μM ATP, 0.2 ng/μL BTK. The protocol:
In vitro kinase assay was used to evaluate the effects of compounds of the present invention on BTK activity (Table 1).
(§1) By using the homogeneous time-resolved fluorescence (HTRF) kinase detection kit (Cisbio, catalog number 62TK0PEC), the enzymatic activity of BTK is determined by detecting the phosphorylation level of the substrate in the kinase reaction. The reaction buffer contains the enzyme reaction buffer (1×) from the kit, 5 mM MgCl2, 1 mM DTT, 10 nM SEB and 0.01% Tween-20; the kinase reaction solution contains human-derived recombinant BTK protein (Carna Biosciences, Catalog No. 08-180) diluted to 0.2 ng/μL with the reaction buffer; the substrate reaction solution contains biotin-labeled tyrosine kinase substrate diluted to 0.5 μM with the reaction buffer and 40 μM ATP; the detection buffer contains Eu^3+-labeled cage antibody diluted to 0.05 ng/μL and streptavidin-labeled XL665 antibody diluted to 31.25 nM with the reaction buffer; the test compound is dissolved and diluted to 100 μM with DMSO, followed by a 4-fold serial dilution with DMSO to the lowest concentration of 6.1 nM and finally 40-time dilution with the reaction buffer for each concentration point. If the IC50 value of the compound is very low, the initial concentration of the compound is reduced.
(§2) Add 4 μL test compound solution and 2 μL kinase reaction solution to a 384-well detection plate (Corning, catalog number 3674), mix well and incubate at room temperature for 15 minutes; add 4 μL substrate reaction solution and incubate for 50 minutes; add 10 μL detection buffer, mix well and stand for 60 minutes; detect signal at 620 nm and 665 nm using an Envision plate reader (Perkin Elmer). The signal value (absorbance at 665 nm/absorbance at 620 nm) is positively correlated with the degree of phosphorylation of the substrate, thereby detecting the kinase activity of BTK. In this experiment, the group without BTK is the negative control (100% inhibition) and the group with BTK but no compound is the positive control (0% inhibition). The inhibition curve is plotted and the corresponding IC50 value of the test compound is calculated using XLfit software (ID Business Solutions Ltd., UK).
On the technique in general: Time-resolved FRET reads energy transfer from a long-lived donor to a nearby acceptor.

Experiment [2] concerns the target T2, human recombinant BTK C481S protein (Homo sapiens, UniProt Q06187, C481S).
T2 construct: made in house
Put plainly: BTK C481S activity inhibition assay (HTRF in vitro kinase assay). To be noted: 35 μM ATP, 1.5 ng/μL BTK C481S. Type of experiment: biochemical. As for the experimental part:
In vitro kinase assay was used to evaluate the effects of compounds of the present invention on BTK C481S activity (Table 1).
as §1, with “BTK C481S” for “BTK”, “nM SEB,” for “nM SEB”, “contains human” for “contains human-derived”, “protein (purified in-house)” for “protein (Carna Biosciences, Catalog No. 08-180)”, “to 1.5” for “to 0.2”, “and 35” for “and 40”
as §2, with “activity of BTK C481S. In this” for “activity of BTK. In this”, “with BTK C481 S but no” for “with BTK but no”, “XLfit software (TD Business Solutions” for “XLfit software (ID Business Solutions”

T2 sequence (Q06187 whole entry C481S): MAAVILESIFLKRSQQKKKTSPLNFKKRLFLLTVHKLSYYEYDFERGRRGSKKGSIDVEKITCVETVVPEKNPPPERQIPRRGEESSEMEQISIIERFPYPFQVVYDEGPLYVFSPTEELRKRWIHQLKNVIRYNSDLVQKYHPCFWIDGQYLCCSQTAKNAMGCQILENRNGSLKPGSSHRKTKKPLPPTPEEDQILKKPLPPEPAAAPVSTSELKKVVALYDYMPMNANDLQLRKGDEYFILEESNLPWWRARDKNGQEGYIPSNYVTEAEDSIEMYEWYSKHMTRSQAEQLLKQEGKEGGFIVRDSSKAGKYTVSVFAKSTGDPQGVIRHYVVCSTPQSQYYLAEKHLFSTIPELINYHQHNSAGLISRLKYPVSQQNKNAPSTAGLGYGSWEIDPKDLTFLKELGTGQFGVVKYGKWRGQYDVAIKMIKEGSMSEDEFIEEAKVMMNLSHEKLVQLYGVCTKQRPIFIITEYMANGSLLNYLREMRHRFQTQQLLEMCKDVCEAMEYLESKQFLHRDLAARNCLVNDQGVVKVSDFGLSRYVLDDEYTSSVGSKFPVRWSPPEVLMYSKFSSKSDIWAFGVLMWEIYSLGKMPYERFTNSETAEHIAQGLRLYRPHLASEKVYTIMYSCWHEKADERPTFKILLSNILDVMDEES
T1 sequence (Q06187 whole entry): as the sequence (Q06187 whole entry C481S) above, with S481C counted along it

In the case of `[2H]C([2H])([2H])Oc1ccc(F)cc1C(=O)NCc1ccc(-c2nc([C@H]3CC[C@H](CO)CC3)n3ncnc(N)c23)cc1` [Compound 18, N-(4-(4-amino-7-((1r,4r)-4-(hydroxymethyl)cyclohexyl)imidazo[5,1-f][1,2,4]triazin-5-yl)benzyl)-5-fluoro-2-(methoxy-d3)benzamide], the results for the IC50 in experiment [1] and in experiment [2] were 0.7 nM and 0.8 nM, respectively.

For the compound `COc1ccc(F)cc1C(=O)NCc1ccc(-c2nc(C3CCCOC3)n3ncnc(N)c23)cc1` (stereo not shown) [Compound 16, N-(4-(4-amino-7-(tetrahydro-2H-pyran-3-yl)imidazo[5,1-f][1,2,4]triazin-5-yl)benzyl)-5-fluoro-2-methoxybenzamide], the IC50 in experiment [1] is 1.8 nM; in experiment [2], 1.1 nM. Take `COc1ccc(F)cc1C(=O)NCc1ccc(-c2nn(C3CCOCC3)c3ccnc(N)c23)cc1` [Compound 1, N-(4-(4-amino-1-(tetrahydro-2H-pyran-4-yl)-1H-pyrazolo[4,3-c]pyridin-3-yl)benzyl)-5-fluoro-2-methoxybenzamide]: the IC50 in experiment [1] was 17 nM; in experiment [2] it was 3.5 nM. The matching figures for `COC(=O)C12CCC(c3nc(-c4ccc(CNC(=O)c5cc(F)ccc5OC)cc4)c4c(N)nccn34)(CC1)C2` [Compound 38, methyl 4-(8-amino-1-(4-((5-fluoro-2-methoxybenzamido)methyl)phenyl)imidazo[1,5-a]pyrazin-3-yl)bicyclo[2.2.1]heptane-1-carboxylate]: 2.9 nM and 2.1 nM.

`COc1ccc(F)cc1C(=O)NCc1ccc(-c2nc([C@@H]3CCNC3)n3ncnc(N)c23)cc1` [Compound 22, (R)-N-(4-(4-amino-7-(pyrrolidin-3-yl)imidazo[5,1-f][1,2,4]triazin-5-yl)benzyl)-5-fluoro-2-methoxybenzamide]: the IC50 was found to be 155 nM in experiment [1] and 36 nM in experiment [2]. The matching figures for `COC(=O)C12CCC(c3nc(-c4ccc(CNC(=O)c5cc(F)ccc5OC)cc4)c4c(N)ncnn34)(CC1)CC2` [Compound 28, methyl 4-(4-amino-5-(4-((5-fluoro-2-methoxybenzamido)methyl)phenyl)imidazo[5,1-f][1,2,4]triazin-7-yl)bicyclo[2.2.2]octane-1-carboxylate]: 1 nM and 2.2 nM. In the same order, the values of `COC(=O)C12CCC(c3nc(-c4ccc(CNC(=O)c5cc(F)ccc5OC)cc4)c4c(N)nccn34)(CC1)CC2` [Compound 33, methyl 4-(8-amino-1-(4-((5-fluoro-2-methoxybenzamido)methyl)phenyl)imidazo[1,5-a]pyrazin-3-yl)bicyclo[2.2.2]octane-1-carboxylate] are 0.8 nM and 1.8 nM. In the same order, the values of `COc1ccc(F)cc1C(=O)NCc1ccc(-c2nc(C3(C(F)(F)F)CC3)n3ncnc(N)c23)cc1` [Compound 43, N-(4-(4-amino-7-(1-(trifluoromethyl)cyclopropyl)imidazo[5,1-f][1,2,4]triazin-5-yl)benzyl)-5-fluoro-2-methoxybenzamide] are 2.7 nM and 5.4 nM. `COc1ccc(F)cc1C(=O)NCc1ccc(-c2nc(C3CCCC3)n3ncnc(N)c23)cc1` [Compound 12, N-(4-(4-amino-7-cyclopentylimidazo[5,1-f][1,2,4]triazin-5-yl)benzyl)-5-fluoro-2-methoxybenzamide]: the IC50 in experiment [1] amounted to 3 nM. With `COc1ccccc1C(=O)NCc1ccc(-c2nc(C3CCC(CO)OC3)n3ccnc(N)c23)cc1` (stereo not shown) [Compound 10, N-(4-(8-amino-3-(6-(hydroxymethyl)tetrahydro-2H-pyran-3-yl)imidazo[1,5-a]pyrazin-1-yl)benzyl)-2-methoxybenzamide], the values for the IC50 in experiment [1] and in experiment [2] were 14 nM and 3.6 nM, respectively.

Consider `Nc1nccn2c(C3CCC(CO)OC3)nc(-c3ccc(CNC(=O)c4ccccn4)cc3)c12` (stereo not shown) [Compound 9, N-(4-(8-amino-3-(6-(hydroxymethyl)tetrahydro-2H-pyran-3-yl)imidazo[1,5-a]pyrazin-1-yl)benzyl)picolinamide], for which the IC50 in experiment [1] worked out at 718 nM; in experiment [2], 498 nM. In the same order, the values of `COc1ccc(F)cc1C(=O)NCc1ccc(-n2c(=O)n(C(C)C(F)(F)F)c3ncnc(N)c32)cc1` (stereo not shown) [Compound 53, N-(4-(6-amino-8-oxo-9-(1,1,1-trifluoropropan-2-yl)-8,9-dihydro-7H-purin-7-yl)benzyl)-5-fluoro-2-methoxybenzamide] are 5.6 nM and 21 nM. In the same order, the values of `[2H]C([2H])([2H])Oc1ccc(F)cc1C(=O)NCc1ccc(-c2nc(C3CCCOC3)n3ccnc(N)c23)cc1` (stereo not shown) [Compound 25, N-(4-(8-amino-3-(tetrahydro-2H-pyran-3-yl)imidazo[1,5-a]pyrazin-1-yl)benzyl)-5-fluoro-2-(methoxy-dz)benzamide] are 1.1 nM and 1.5 nM. Consider `COc1ccc(F)cc1C(=O)NCc1ccc(-c2nc(C34CC(C(=O)O)(C3)C4)n3ncnc(N)c23)cc1` [Compound 31, 3-(4-amino-5-(4-((5-fluoro-2-methoxybenzamido)methyl)phenyl)imidazo[5,1-f][1,2,4]triazin-7-yl)bicyclo[1.1.1]pentane-1-carboxylic acid], for which the IC50 in experiment [1] was found to be 0.6 nM; in experiment [2] it was 3 nM.

Turning to `COc1ccc(C)nc1C(=O)NCc1ccc(-c2nc(C3CCCOC3)n3ccnc(N)c23)cc1` (stereo not shown) [Compound 19, N-(4-(8-amino-3-(tetrahydro-2H-pyran-3-yl)imidazo[1,5-a]pyrazin-1-yl)benzyl)-3-methoxy-6-methylpicolinamide], the IC50 was found to be 212 nM in experiment [1] and 201 nM in experiment [2].

In the case of `COC(=O)C12CC(c3nc(-c4ccc(CNC(=O)c5cc(F)ccc5OC)cc4)c4c(N)ncnn34)(C1)C2` [Compound 29, methyl 3-(4-amino-5-(4-((5-fluoro-2-methoxybenzamido)methyl)phenyl)imidazo[5,1-f][1,2,4]triazin-7-yl)bicyclo[1.1.1]pentane-1-carboxylate], the results for the IC50 in experiment [1] and in experiment [2] were 1.2 nM and 2.1 nM, respectively. The matching figures for `COc1ccc(F)cc1C(=O)NCc1ccc(-c2nc([C@]3(C)CC[C@@](C)(C(=O)O)CC3)n3ncnc(N)c23)cc1` [Compound 47, (1r,4r)-4-(4-amino-5-(4-((5-fluoro-2-methoxybenzamido)methyl)phenyl)imidazo[5,1-f][1,2,4]triazin-7-yl)-1,4-dimethylcyclohexane-1-carboxylic acid]: 1.3 nM and 1.4 nM. The matching figures for `COc1ccc(F)cc1C(=O)NCc1ccc(-n2c(=O)n(C3CCOCC3)c3ncnc(N)c32)cc1` [Compound 51, N-(4-(6-amino-8-oxo-9-(tetrahydro-2H-pyran-4-yl)-8,9-dihydro-7H-purin-7-yl)benzyl)-5-fluoro-2-methoxybenzamide]: 4 nM and 9.2 nM. As for `COc1ccc(F)cc1C(=O)NCc1ccc(-n2c(=O)n([C@H]3CC[C@H](CO)CC3)c3ncnc(N)c32)cc1` [Compound 50, N-(4-(6-amino-9-((1r,4r)-4-(hydroxymethyl)cyclohexyl)-8-oxo-8,9-dihydro-7H-purin-7-yl)benzyl)-5-fluoro-2-methoxybenzamide], the IC50 in experiment [1] worked out at 2.4 nM; in experiment [2], 20 nM.
